Test results from ChEMBL document CHEMBL5518224, “Rational Design of PARP1/c-Met Dual Inhibitors for Overcoming PARP1 Inhibitor Resistance Induced by c-Met Overexpression” (J Med Chem, 2024).
Calls of active or inactive are those of the source. The calls are words filed in the database; no cut-off is given here.

Columns and labels:
[1] = target: T1, Hepatocyte growth factor receptor (Homo sapiens, UniProt P08581); test: Inhibition of c-Met (unknown origin) by HTRF method
MDA-MB-231 [2] = test: Antiproliferative activity against human MDA-MB-231 cells harboring wild type BRCA and c-Met amplification assessed as inhibition of cell growth incubated for 7 days by MTT assay; assay type: functional, cell-based; conditions: MDA-MB-231, 168 h
[3] = target: T2, Poly [ADP-ribose] polymerase 1 (Homo sapiens, UniProt P09874); test: Inhibition of PARP1 (unknown origin) using histone as substrate incubated for 45 mins by absorbance based analysis
MDA-MB-231 [4] = test: Effect on PARP1 […] in human MDA-MB-231 cells with H2O2-induced oxidative stress at 0.5 uM by RT-qPCR analysis; assay type: functional, cell-based
MDA-MB-231 [5] = test: Effect on BRCA2 protein level in human MDA-MB-231 cells at 0.5 uM incubated for 72 hrs by Western blot analysis; assay type: functional, cell-based
MDA-MB-231 [6] = test: Downregulation of phosphorylated c-MET mRNA level in human MDA-MB-231 cells with H2O2-induced oxidative stress at 0.5 uM by RT-qPCR analysis; assay type: functional, cell-based
MDA-MB-231 [7] = test: Induction of G2/M phase cell cycle arrest in human MDA-MB-231 cells at 0.5 to 1 uM incubated for 4 days by PI staining based flow cytometry analysis; assay type: functional; conditions: dose 0.5-1 µM, time 4.0 day
MDA-MB-231 [8] = test: Antitumor activity against human MDA-MB-231 cells xenografted in female Balb/c nude mouse assessed as reduction in Ki67 expression in tumor at 50 mg/kg/day, ip qd administered for 28 days by immunohistochemistry analysis; assay type: functional, organism-based; conditions: time 28.0 day
MDA-MB-231 [9] = test: Induction of DNA damage in human MDA-MB-231 cells assessed as increase in gammaH2AX protein level at 0.5 uM incubated for 72 hrs by Western blot analysis; assay type: functional, cell-based
MDA-MB-231 [10] = test: Effect on homologous recombination in human MDA-MB-231 cells assessed as reduction in BRCA1 protein level by measuring disruption of BRCA1-BRCA2-Rad51 complex formation at 0.5 uM incubated for 72 hrs by Western blot analysis; assay type: functional, cell-based
MDA-MB-231 [11] = test: Effect on homologous recombination in human MDA-MB-231 cells assessed as reduction in BRCA2-Rad51 complex formation at 0.5 uM incubated for 72 hrs by proximity ligation assay; assay type: functional, cell-based
MDA-MB-231 [12] = test: Effect on homologous recombination in human MDA-MB-231 cells assessed as reduction in BRCA1 mRNA level by measuring disruption of BRCA1-BRCA2-Rad51 complex formation at 0.5 uM by RT-qPCR analysis; assay type: functional, cell-based
MDA-MB-231 [13] = test: Effect on BRCA2 mRNA level in human MDA-MB-231 cells at 0.5 uM by RT-qPCR analysis; assay type: functional, cell-based
MDA-MB-231 [14] = test: Induction of DNA damage in human MDA-MB-231 cells assessed as increase in gammaH2AX expression at 0.5 to 1 uM incubated for 3 days by immunofluorescence based laser confocal microscopic analysis; assay type: functional, cell-based; conditions: dose 0.5-1 µM, time 3.0 day
MDA-MB-231 [15] = test: Induction of DNA damage in human MDA-MB-231 cells assessed as increase in tail DNA at 0.5 uM incubated for 72 hrs by comet assay; assay type: functional, cell-based
MDA-MB-231 [16] = test: Antitumor activity against human MDA-MB-231 cells xenografted in female Balb/c nude mouse assessed as reduction in tumor weight at 12.5 to 50 mg/kg/day, ip qd administered for 28 days; assay type: functional, organism-based; conditions: dose 12.5-50 mg/kg/day, time 28.0 day
MDA-MB-231 [17] = test: Antitumor activity against human MDA-MB-231 cells xenografted in female Balb/c nude mouse assessed as reduction in BRCA1 expression in tumor at 50 mg/kg/day, ip qd administered for 28 days by immunohistochemistry analysis; assay type: functional, organism-based; conditions: time 28.0 day
MDA-MB-231 [18] = test: Downregulation of phosphorylated c-MET protein level in human MDA-MB-231 cells with H2O2-induced oxidative stress at 0.5 uM incubated for 72 hrs by Western blot analysis; assay type: functional, cell-based
MDA-MB-231 [19] = test: Inhibition of PARP1/c-Met protein-protein interaction in H2O2 stimulated human MDA-MB-231 cells at 0.5 uM incubated for 72 hrs by proximity ligation assay; assay type: cell-based
MDA-MB-231 [20] = test: Antitumor activity against human MDA-MB-231 cells xenografted in female Balb/c nude mouse assessed as induction of apoptosis by measuring upregulation of cleaved caspase-3 expression in tumor at 50 mg/kg/day, ip qd administered for 28 days by immunohistochemistry analysis; assay type: functional, organism-based; conditions: time 28.0 day
[21] = test system: Olaparib-resistant HCT116; test: Antitumor activity against human Olaparib-resistant HCT116 cells xenografted in female Balb/c nude mouse assessed as reduction in tumor weight at 5 mg/kg/day, iv qd administered for 21 days; assay type: functional, organism-based; conditions: time 21.0 day
MDA-MB-231 [22] = test: Effect on c-MET protein expression in human MDA-MB-231 cells with H2O2-induced oxidative stress at 0.5 uM incubated for 72 hrs by Western blot analysis; assay type: functional, cell-based
MDA-MB-231 [23] = test: Effect on homologous recombination in human MDA-MB-231 cells assessed as reduction in Rad51 protein level by measuring disruption of BRCA1-BRCA2-Rad51 complex formation at 0.5 uM incubated for 72 hrs by Western blot analysis; assay type: functional, cell-based
MDA-MB-231 [24] = test: Downregulation of phosphorylated AKT level in human MDA-MB-231 cells with H2O2-induced oxidative stress at 0.5 uM […]; assay type: functional, cell-based
[25] = target: T1, Hepatocyte growth factor receptor; test: Inhibition of c-Met (unknown origin) at 1 uM relative to control
[26] = target: T2, Poly [ADP-ribose] polymerase 1; test: Binding affinity to PARP1 in human MDA-MB-231 cells assessed as thermal stabilization at 1 uM at 43 to 55 degreeC incubated for 12 hrs by CETSA; assay type: cell-based
MDA-MB-231 [27] = test: Downregulation of PAR mRNA level in human MDA-MB-231 cells with H2O2-induced oxidative stress at 0.5 uM by RT-qPCR analysis; assay type: functional, cell-based
MDA-MB-231 [28] = test: Effect on c-MET […] in human MDA-MB-231 cells with H2O2-induced oxidative stress at 0.5 uM by RT-qPCR analysis; assay type: functional, cell-based
[29] = target: ALK tyrosine kinase receptor (Homo sapiens) (UniProt Q9UM73); test: Inhibition of ALK (unknown origin) at 1 uM relative to control
MDA-MB-231 [30] = test: Effect on PARP1 protein expression in human MDA-MB-231 cells with H2O2-induced oxidative stress at 0.5 uM incubated for 72 hrs by Western blot analysis; assay type: functional, cell-based
[31] = target: Proto-oncogene tyrosine-protein kinase ROS (Homo sapiens) (UniProt P08922); test: Inhibition of ROS1 (unknown origin) at 1 uM relative to control
MDA-MB-231 [32] = test: Induction of DNA damage in human MDA-MB-231 cells assessed as increase in gammaH2AX […] analysis; assay type: functional, cell-based
MDA-MB-231 [33] = test: Downregulation of PAR protein level in human MDA-MB-231 cells with H2O2-induced oxidative stress at 0.5 uM incubated for 72 hrs by Western blot analysis; assay type: functional, cell-based
MDA-MB-231 [34] = test: Effect on homologous recombination in human MDA-MB-231 cells assessed as reduction in Rad51 nuclear level at 0.5 to 1 uM incubated for 72 hrs by immunofluorescence analysis; assay type: functional, cell-based; conditions: dose 0.5-1 µM
MDA-MB-231 [35] = test: Antitumor activity against human MDA-MB-231 cells xenografted in female Balb/c nude mouse assessed as induction of DNA damage by measuring increase in gammaH2AX expression in tumor at 50 mg/kg/day, ip qd administered for 28 days by immunohistochemistry analysis; assay type: functional, organism-based; conditions: time 28.0 day
MDA-MB-231 [36] = test: Antiproliferative activity against human MDA-MB-231 cells assessed as inhibition of cell growth assessed as reduction in colony formation at 0.5 to 1 uM incubated for 14 days by crystal violet staining based microscopic analysis; assay type: functional; conditions: dose 0.5-1 µM, time 14.0 day
MDA-MB-231 [37] = test: Effect on homologous recombination in human MDA-MB-231 cells assessed as reduction in Rad51 mRNA level by measuring disruption of BRCA1-BRCA2-Rad51 complex formation at 0.5 uM by RT-qPCR analysis; assay type: functional, cell-based
[38] = target: T1, Hepatocyte growth factor receptor; test: Binding affinity to c-Met in human MDA-MB-231 cells assessed as thermal stabilization at 1 uM at 43 to 55 degreeC incubated for 12 hrs by CETSA; assay type: cell-based
MDA-MB-231 [39] = test: Downregulation of phosphorylated AKT level in human MDA-MB-231 cells with H2O2-induced oxidative stress at 0.5 uM incubated for 72 hrs by Western blot analysis; assay type: functional, cell-based
[40] = test system: Olaparib-resistant HCT116; test: Antitumor activity against human Olaparib-resistant HCT116 cells xenografted in female Balb/c nude mouse assessed as reduction in tumor weight at 25 to 100 mg/kg/day, ip qd administered for 21 days; assay type: functional, organism-based; conditions: dose 25-100 mg/kg/day, time 21.0 day

T2 sequence (P09874 whole entry): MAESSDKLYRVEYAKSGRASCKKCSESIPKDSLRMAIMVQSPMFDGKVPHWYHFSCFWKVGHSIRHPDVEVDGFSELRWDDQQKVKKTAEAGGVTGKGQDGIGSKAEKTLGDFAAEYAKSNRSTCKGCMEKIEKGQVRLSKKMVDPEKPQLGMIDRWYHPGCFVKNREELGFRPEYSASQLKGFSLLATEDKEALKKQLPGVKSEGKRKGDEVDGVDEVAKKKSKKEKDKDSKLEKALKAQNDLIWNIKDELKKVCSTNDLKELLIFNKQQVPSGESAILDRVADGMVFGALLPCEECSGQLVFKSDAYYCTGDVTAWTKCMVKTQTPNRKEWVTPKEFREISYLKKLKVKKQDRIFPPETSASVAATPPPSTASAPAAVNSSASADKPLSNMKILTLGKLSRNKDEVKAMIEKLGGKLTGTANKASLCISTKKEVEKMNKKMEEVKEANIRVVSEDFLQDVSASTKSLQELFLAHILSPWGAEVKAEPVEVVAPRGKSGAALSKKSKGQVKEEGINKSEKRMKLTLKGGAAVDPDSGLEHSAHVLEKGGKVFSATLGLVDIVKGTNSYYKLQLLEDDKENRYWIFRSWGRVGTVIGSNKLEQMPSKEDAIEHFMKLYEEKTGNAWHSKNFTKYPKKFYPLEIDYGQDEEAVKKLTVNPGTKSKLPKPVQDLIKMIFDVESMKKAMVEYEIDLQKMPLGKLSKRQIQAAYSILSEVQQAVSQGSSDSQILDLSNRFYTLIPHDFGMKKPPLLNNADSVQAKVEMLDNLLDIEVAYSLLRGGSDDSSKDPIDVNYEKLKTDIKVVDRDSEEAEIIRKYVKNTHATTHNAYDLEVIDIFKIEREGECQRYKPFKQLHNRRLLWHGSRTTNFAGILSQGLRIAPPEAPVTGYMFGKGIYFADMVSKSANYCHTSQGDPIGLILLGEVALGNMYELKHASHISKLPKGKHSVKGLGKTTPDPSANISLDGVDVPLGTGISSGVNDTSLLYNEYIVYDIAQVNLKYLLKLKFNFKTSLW
T1 sequence (P08581 whole entry): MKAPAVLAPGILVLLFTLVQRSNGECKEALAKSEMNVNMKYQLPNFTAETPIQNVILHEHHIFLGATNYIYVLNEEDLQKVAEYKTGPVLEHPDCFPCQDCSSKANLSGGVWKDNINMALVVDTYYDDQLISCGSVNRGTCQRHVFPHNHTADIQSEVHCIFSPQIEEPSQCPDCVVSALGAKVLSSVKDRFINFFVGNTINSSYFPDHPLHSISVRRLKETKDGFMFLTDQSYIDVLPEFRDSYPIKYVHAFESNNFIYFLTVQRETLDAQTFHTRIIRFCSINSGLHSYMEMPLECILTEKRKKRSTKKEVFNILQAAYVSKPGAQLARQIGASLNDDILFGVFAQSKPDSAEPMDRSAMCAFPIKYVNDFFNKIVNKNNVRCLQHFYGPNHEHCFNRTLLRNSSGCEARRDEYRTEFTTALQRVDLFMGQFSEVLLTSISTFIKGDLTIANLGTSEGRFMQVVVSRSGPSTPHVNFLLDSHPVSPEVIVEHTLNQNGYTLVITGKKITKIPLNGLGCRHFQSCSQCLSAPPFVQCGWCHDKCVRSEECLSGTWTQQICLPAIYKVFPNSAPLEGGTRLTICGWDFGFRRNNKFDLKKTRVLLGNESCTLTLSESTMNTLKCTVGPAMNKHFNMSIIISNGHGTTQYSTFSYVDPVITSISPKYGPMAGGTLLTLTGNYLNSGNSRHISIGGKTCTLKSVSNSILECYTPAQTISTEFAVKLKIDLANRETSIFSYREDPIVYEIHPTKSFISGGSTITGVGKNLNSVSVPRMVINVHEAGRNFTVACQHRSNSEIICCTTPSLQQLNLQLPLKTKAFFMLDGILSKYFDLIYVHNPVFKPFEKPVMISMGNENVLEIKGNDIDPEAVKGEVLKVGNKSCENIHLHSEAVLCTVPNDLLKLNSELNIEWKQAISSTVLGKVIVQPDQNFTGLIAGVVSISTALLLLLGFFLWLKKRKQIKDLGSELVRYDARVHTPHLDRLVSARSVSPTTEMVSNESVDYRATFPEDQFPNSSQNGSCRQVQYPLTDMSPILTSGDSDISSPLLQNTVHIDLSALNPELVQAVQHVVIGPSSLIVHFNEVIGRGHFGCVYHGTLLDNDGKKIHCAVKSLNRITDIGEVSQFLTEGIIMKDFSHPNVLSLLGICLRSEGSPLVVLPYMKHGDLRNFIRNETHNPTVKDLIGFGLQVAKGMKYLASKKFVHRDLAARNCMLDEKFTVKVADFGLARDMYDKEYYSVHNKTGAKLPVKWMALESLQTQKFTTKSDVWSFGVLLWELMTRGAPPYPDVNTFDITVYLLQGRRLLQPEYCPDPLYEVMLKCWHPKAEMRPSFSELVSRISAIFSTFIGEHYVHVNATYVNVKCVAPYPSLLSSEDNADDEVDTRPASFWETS
Proto-oncogene tyrosine-protein kinase ROS (Homo sapiens), sequence (P08922 whole entry): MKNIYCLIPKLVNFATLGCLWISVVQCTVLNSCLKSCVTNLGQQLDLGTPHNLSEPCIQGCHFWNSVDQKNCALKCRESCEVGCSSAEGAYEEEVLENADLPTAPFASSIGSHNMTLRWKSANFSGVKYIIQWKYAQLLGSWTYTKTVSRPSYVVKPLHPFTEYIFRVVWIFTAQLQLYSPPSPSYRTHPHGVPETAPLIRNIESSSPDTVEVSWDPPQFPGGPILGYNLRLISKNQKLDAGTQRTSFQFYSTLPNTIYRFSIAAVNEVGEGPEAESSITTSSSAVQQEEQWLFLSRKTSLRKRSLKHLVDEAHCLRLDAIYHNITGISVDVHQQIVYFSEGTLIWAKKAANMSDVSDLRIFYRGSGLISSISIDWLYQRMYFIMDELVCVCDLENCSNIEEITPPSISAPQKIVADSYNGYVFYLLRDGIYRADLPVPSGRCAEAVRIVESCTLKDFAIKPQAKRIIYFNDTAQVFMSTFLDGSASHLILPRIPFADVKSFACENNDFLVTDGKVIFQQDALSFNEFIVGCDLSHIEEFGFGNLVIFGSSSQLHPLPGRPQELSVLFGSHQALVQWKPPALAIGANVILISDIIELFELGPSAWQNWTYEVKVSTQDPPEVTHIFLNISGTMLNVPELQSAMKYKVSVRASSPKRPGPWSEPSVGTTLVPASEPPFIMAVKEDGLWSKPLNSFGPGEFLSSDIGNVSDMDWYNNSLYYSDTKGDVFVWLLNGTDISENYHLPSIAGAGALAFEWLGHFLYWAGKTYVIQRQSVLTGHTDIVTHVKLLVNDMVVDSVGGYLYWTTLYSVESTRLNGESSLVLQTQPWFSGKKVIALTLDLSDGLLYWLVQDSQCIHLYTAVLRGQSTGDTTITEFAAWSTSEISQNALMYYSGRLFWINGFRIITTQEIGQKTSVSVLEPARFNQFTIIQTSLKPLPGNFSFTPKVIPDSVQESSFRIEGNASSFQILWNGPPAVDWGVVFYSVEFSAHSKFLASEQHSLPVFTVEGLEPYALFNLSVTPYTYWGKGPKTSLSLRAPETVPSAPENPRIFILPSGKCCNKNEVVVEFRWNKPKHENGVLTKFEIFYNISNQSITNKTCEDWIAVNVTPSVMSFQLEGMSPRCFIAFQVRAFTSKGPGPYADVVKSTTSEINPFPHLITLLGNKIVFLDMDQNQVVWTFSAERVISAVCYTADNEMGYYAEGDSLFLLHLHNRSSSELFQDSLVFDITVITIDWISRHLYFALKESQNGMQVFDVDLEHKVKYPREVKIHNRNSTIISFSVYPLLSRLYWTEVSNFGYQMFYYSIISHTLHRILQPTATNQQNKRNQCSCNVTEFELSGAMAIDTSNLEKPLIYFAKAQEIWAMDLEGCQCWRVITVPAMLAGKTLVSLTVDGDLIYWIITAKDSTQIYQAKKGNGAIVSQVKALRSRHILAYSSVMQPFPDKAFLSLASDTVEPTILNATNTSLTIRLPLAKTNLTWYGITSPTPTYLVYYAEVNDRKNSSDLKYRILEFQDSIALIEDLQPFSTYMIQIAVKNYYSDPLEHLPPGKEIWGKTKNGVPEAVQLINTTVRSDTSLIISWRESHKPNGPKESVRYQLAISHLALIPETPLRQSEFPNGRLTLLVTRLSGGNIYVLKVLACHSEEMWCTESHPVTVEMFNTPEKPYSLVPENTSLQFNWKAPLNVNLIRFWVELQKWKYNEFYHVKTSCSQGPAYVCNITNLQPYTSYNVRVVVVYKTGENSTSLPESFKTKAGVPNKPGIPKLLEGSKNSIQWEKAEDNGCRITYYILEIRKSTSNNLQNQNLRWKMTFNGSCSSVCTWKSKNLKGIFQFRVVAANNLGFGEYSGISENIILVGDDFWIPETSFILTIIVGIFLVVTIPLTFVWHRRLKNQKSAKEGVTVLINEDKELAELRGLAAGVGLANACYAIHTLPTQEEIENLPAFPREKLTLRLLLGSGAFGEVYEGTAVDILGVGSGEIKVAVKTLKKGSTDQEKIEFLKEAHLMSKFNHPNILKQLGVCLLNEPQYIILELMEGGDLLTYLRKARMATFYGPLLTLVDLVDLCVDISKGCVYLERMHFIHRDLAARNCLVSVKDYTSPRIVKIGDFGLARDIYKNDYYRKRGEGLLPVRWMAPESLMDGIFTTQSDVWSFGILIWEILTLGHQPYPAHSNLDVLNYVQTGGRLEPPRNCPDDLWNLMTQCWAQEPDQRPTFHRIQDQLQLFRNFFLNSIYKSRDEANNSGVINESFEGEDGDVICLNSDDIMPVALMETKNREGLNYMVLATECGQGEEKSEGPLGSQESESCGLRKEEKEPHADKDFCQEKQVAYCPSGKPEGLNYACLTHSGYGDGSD

Cn1cc(-c2ccc(=O)n(CCOc3ccnc4cc(N5CCN(C(=O)c6cc(Cc7n[nH]c(=O)c8ccccc78)ccc6F)CC5)ccc34)n2)cn1
IC50 [1]: 30 nM | IC50 (MDA-MB-231 [2]): 230 nM | IC50 [3]: 0.12 nM

O=C(c1cc(Cc2n[nH]c(=O)c3ccccc23)ccc1F)N1CCN(c2ccc3c(OCCn4nc(-c5cccnc5)ccc4=O)ccnc3c2)CC1
Activity (MDA-MB-231 [4]): inactive | Activity (MDA-MB-231 [5]): inactive | Activity (MDA-MB-231 [6]): Active | Activity (MDA-MB-231 [7]): Active | Activity (MDA-MB-231 [8]): Active | Activity (MDA-MB-231 [9]): Active | Activity (MDA-MB-231 [10]): Active | Activity (MDA-MB-231 [11]): Active | Activity (MDA-MB-231 [12]): Active | Activity (MDA-MB-231 [13]): inactive | Activity (MDA-MB-231 [14]): Active | Activity (MDA-MB-231 [15]): Active | Activity (MDA-MB-231 [16]): Active | Activity (MDA-MB-231 [17]): Active | Activity (MDA-MB-231 [18]): Active | inhibition (MDA-MB-231 [19]): Active | Activity (MDA-MB-231 [20]): Active | Activity [21]: Active | Activity (MDA-MB-231 [22]): inactive | Activity (MDA-MB-231 [23]): Active | Activity (MDA-MB-231 [24]): Active | inhibition [25]: 98.3% | Activity [26]: Active | Activity (MDA-MB-231 [27]): Active | Activity (MDA-MB-231 [28]): inactive | inhibition [29]: 60.3% | Activity (MDA-MB-231 [30]): inactive | inhibition [31]: 63% | Activity (MDA-MB-231 [32]): Active | Activity (MDA-MB-231 [33]): Active | Activity (MDA-MB-231 [34]): Active | Activity (MDA-MB-231 [35]): Active | Activity (MDA-MB-231 [36]): Active | Activity (MDA-MB-231 [37]): Active | Activity [38]: Active | Activity (MDA-MB-231 [39]): Active | Activity [40]: Active

CC1CN(c2ccc3c(OCCn4nc(-c5cnn(C)c5)ccc4=O)ccnc3c2)CCN1C(=O)c1cc(Cc2n[nH]c(=O)c3ccccc23)ccc1F (racemic)
IC50 [1]: 29 nM | IC50 (MDA-MB-231 [2]): 5540 nM | IC50 [3]: 1.1 nM

Cn1cc(-c2ccc(=O)n(CCOc3ccnc4cc(NC5CCN(C(=O)c6cc(Cc7n[nH]c(=O)c8ccccc78)ccc6F)C5)ccc34)n2)cn1 (stereo not given)
IC50 [1]: 42.6 nM | IC50 [3]: 5.8 nM

Cn1cc(-c2ccc(=O)n(CCOc3ccnc4cc(NC5CCN(C(=O)c6cc(Cc7n[nH]c(=O)c8ccccc78)ccc6F)CC5)ccc34)n2)cn1
IC50 [1]: 126 nM | IC50 [3]: 4.7 nM

O=C(c1cc(Cc2n[nH]c(=O)c3ccccc23)ccc1F)N1CCN(c2ccc3c(OCCn4nc(-c5ccccc5)ccc4=O)ccnc3c2)CC1
IC50 [1]: 37.7 nM | IC50 (MDA-MB-231 [2]): 1730 nM | IC50 [3]: 1.1 nM

Cn1cc(-c2ccc(=O)n(CCOc3ccnc4cc(N5CCC(NC(=O)c6cc(Cc7n[nH]c(=O)c8ccccc78)ccc6F)C5)ccc34)n2)cn1 (stereo not given)
IC50 [1]: 33.1 nM | IC50 [3]: 91.7 nM

Cn1cc(-c2ccc(=O)n(CCOc3ccnc4cc(OCCN5CCN(C(=O)c6cc(Cc7n[nH]c(=O)c8ccccc78)ccc6F)CC5)ccc34)n2)cn1
IC50 [1]: 18.2 nM | IC50 (MDA-MB-231 [2]): 1020 nM | IC50 [3]: 3.7 nM
